Experiment: Stability of setron drug aqueous solutions (0.1 w/w %) at pH 8 to 3, stored at 40° C. for three months
Format: physicochemical
Conditions: 0.1 w/w % aqueous solution
Experimental: The present inventors have investigated the stability of each setron drug (azasetron, granisetron, tropisetron, ramosetron, or ondansetron) in the aqueous solution of pH 8 to3. That is, an aqueous solution of each setron drug (0.1 w/w %) was adjusted to various pH values (pH 8 to 3) with hydrochloric acid or sodium hydroxide. After storing at 40° C. for three months, the external appearance and taste of the solution were observed. As a result, for each of the setron drugs, the aqueous solution of pH 8 is colored faint yellow, but the aqueous solution of pH 3 to 7 is colorless.

[1] = pH 3 to 7, stored at 40° C. for three months
[2] = pH 8, stored at 40° C. for three months

SMILES	external appearance (color) of the aqueous solution [1]	external appearance (color) of the aqueous solution [2]
CN1C(=O)COc2c(C(=O)NC3CN4CCC3CC4)cc(Cl)cc21 (stereo not shown) [azasetron]	colorless	faint yellow
CN1C2CCCC1CC(NC(=O)c1nn(C)c3ccccc13)C2 (stereo not shown) [granisetron]	colorless	faint yellow
Cc1nccn1CC1CCc2c(c3ccccc3n2C)C1=O (stereo not shown) [ondansetron]	colorless	faint yellow
Cn1cc(C(=O)[C@@H]2CCc3nc[nH]c3C2)c2ccccc21 [ramosetron]	colorless	faint yellow
CN1[C@@H]2CC[C@H]1C[C@@H](OC(=O)c1c[nH]c3ccccc13)C2 [tropisetron]	colorless	faint yellow
